What was measured:
[1] = Cell viability (MTT assay) in HaCaT; type: cell-based, Human; conditions: human, HaCaT keratinocytes, HaCaT, 1% FBS
Method: (§1) Cell Lines/Cells: Human Keratinocytes (HaCaT); Human melanoma (SK-MEL-28); Human PBMCs. Test Item: IS181 Treatment regimen: Single addition—24 h, ^#Multiple additions (3)−72 h; Concentration range: 1 ng/ml-2 mg/ml (triplicate wells); Sera Condition: […] Method of estimation: MTT assay. […] Positive control: Triton-X-100, Doxorubicin Hydrochloride.

[2] = tested on: Human Keratinocytes (HaCaT); experiment: Cell viability (MTT assay) in HaCaT; type: cell-based; conditions: for IC50 value / cytotoxicity: HaCaT
Method: as §1

[3] = tested on: Human endothelial cells (EA.hy 926); experiment: Inhibition of endothelial cell migration (wound); type: cell-based; conditions: for % Inhibition of migration with respect to respective 0 h control: EA.hy926, 14 h
Method: Cell line: Human endothelial cells (EA.hy 926); test item: IS 181; treatment regimen: single addition; concentration range: 0.1 μg/ml-1 mg/ml; sera condition: medium containing 10% FBS. […] The cells were then subjected to serum starved with medium containing 1% FBS for 24 hours. 24 hours post serum starvation, the wounds (straight line) were created in the middle of the well using a sterile 200 μl pipette tip. Cells were washed twice using DMEM followed by treatment with different concentrations of IS 181 in DMEM containing 10% FBS. Images of wound were taken at 0 h and 14 h at three points in single well and distance of wound closure was measured using Image J software. End point: image analysis of cell migration of different concentrations of IS 181 treated cells at 0 hour and after 14 hours of treatment. Percentage inhibition in cell migration of different concentrations of IS 181 treated cells were calculated after 14 h of treatment with respect to respective 0 hours (FIG. 13). […] (FIGS. 14A-14B).

VEGF = VEGF inhibition in keratinocytes (ELISA); type: cell-based, Human; set-up: inhibition of VEGF secretion as compared to untreated (basal) levels: dose or concentration left out as unconfirmed; conditions: HaCaT; for % Inhibition of VEGF wrt untreated (basal) levels / Conc. of VEGF: 24 h
Method: Cell lines: Human Keratinocytes (HaCaT); test item: IS181; treatment regimen: single addition—24 hours; concentration range: 0.1 μg/ml-100 μg/ml. […] Cells were serum-starved for another 24 hours (0% FBS). Cells were treated with IS181 for 24 hours. Supernatants were collected and stored at −20° C. till analysed. Levels of VEGF were analysed in supernatants by ELISA. Percent inhibition of VEGF secretion was calculated with reference to untreated levels. Positive control: curcumin; retinoic acid (at non-cytotoxic concentrations).

PDGFRA (PDGFR alpha) = PDGFRA (PDGFR alpha) (Homo sapiens, UniProt P16234); experiment: Biochemical kinase assay PDGFRA; conditions: cell free, read-out: inhibition of PDGFRA (PDGRFR alpha)
Method: Test system: cell free assays; test items: IS181; concentrations tested: 1 ng/ml-5000 μg/ml; Kinases: a) Cell free assays: EGFR (ErbB1); FLT1 (VEGFR1); JAK1; JAK3 MAP2K1 (MEK1); PDGFRA (PDGFR alpha); PRKCA (PKC alpha); b) cell based assay: JAK-STAT.

[4] = tested on: Imiquimod (IMQ) induced psoriasis; experiment: Imiquimod (IMQ) induced psoriasis model; type: in vivo, BALB/C mice
Method: The Experiment was carried out in Imiquimod (IMQ) induced psoriasis model in mice. […] […] There was a trend in animals treated with IS-181 through s.c. in ear thickness (life phase), punch biopsy, spleen weight and histopathology. […] Thus, […] In the view of this, it may be worth to explore the potency of the peptide for the diseases where TNFα playing central role in pathogenesis.

[5] = tested on: Imiquimod (IMQ) induced psoriasis; experiment: Imiquimod (IMQ) induced psoriasis model; type: in vivo, BALB/C mice; remark: listed apart in the source

Chain of PDGFRA (PDGFR alpha) (P16234 24-1089): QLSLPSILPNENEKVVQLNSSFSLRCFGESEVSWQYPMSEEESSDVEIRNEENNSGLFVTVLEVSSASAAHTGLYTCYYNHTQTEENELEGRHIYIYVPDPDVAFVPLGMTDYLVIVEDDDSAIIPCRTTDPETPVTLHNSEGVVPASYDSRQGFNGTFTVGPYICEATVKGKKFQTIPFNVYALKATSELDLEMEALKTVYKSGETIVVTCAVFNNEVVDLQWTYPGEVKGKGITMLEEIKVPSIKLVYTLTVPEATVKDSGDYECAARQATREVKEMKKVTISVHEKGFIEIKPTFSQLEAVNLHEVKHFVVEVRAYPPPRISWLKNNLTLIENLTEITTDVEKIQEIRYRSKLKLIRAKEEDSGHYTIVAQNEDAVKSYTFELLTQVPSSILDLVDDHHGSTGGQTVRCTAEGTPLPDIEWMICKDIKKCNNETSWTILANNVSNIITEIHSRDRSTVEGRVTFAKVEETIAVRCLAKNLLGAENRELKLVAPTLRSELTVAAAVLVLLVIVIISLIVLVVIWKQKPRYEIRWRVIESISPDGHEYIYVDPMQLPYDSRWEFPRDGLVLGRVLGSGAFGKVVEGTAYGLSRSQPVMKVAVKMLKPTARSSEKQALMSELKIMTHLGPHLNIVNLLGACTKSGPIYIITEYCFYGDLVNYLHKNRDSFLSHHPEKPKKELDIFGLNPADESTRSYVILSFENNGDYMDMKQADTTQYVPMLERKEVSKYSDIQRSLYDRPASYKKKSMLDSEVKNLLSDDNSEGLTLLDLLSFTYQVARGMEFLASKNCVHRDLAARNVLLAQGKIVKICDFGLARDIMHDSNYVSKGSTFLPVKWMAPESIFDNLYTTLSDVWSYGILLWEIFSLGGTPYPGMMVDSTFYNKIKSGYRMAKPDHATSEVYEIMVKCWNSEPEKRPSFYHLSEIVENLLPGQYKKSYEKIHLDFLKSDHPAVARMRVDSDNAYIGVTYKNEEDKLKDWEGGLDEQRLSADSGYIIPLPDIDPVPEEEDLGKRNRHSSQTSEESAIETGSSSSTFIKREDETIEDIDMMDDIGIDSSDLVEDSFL

Q: Which results are given for “H-WVQRVVEKFLK-OH [IS181, H-Trp-Val-Gln-Arg-Val-Val-Glu-Lys-Phe-Leu-Lys-OH]”?
A: cytotoxicity at 24 h, 0.1 μg/ml ([1]; 24 h, 0.1 μg/ml): -1.4%; cytotoxicity at 24 h, 0.5 μg/ml ([1]; 24 h, 0.5 μg/ml): -4.61%; cytotoxicity at 24 h, 1 μg/ml ([1]; 24 h, 1 μg/ml): 4.88%; cytotoxicity at 24 h, 5 μg/ml ([1]; 24 h, 5 μg/ml): 8.43%; cytotoxicity at 24 h, 10 μg/ml ([1]; 24 h, 10 μg/ml): 5.75%; cytotoxicity at 24 h, 50 μg/ml ([1]; 24 h, 50 μg/ml): 1.79%; cytotoxicity at 24 h, 100 μg/ml ([1]; 24 h, 100 μg/ml): -0.58%; cytotoxicity at 24 h, 500 μg/ml ([1]; 24 h, 500 μg/ml): 18.9%; cytotoxicity at 24 h, 1000 μg/ml ([1]; 24 h, 1000 μg/ml): 87.8%; cytotoxicity at 24 h, 2000 μg/ml ([1]; 24 h, 2000 μg/ml): 91.3%; cytotoxicity at 72 h, 0.1 μg/ml ([1]; 72 h, 0.1 μg/ml): -56.2%; cytotoxicity at 72 h, 0.5 μg/ml ([1]; 72 h, 0.5 μg/ml): -75.4%; cytotoxicity at 72 h, 1 μg/ml ([1]; 72 h, 1 μg/ml): -66.1%; cytotoxicity at 72 h, 5 μg/ml ([1]; 72 h, 5 μg/ml): -37.5%; cytotoxicity at 72 h, 10 μg/ml ([1]; 72 h, 10 μg/ml): -44.5%; cytotoxicity at 72 h, 50 μg/ml ([1]; 72 h, 50 μg/ml): -33%; cytotoxicity at 72 h, 100 μg/ml ([1]; 72 h, 100 μg/ml): -42.5%; cytotoxicity at 72 h, 500 μg/ml ([1]; 72 h, 500 μg/ml): 58.5%; cytotoxicity at 72 h, 1000 μg/ml ([1]; 72 h, 1000 μg/ml): 91%; cytotoxicity at 72 h, 2000 μg/ml ([1]; 72 h, 2000 μg/ml): 89.4%; IC50 ([2]; 24 h): 470 µM; Selectivity Index -IC50 (PBMC)/IC50 (HaCaT/SK-MEL-28 cells) ([2]; 24 h): 3; selectivity of cytotoxic activity against human keratinocytes ([2]; 24 h): selective cytotoxic activity; IC50 ([2]; 72 h): 290 µM; Selectivity Index -IC50 (PBMC)/IC50 (HaCaT/SK-MEL-28 cells) ([2]; 72 h): 2; IC50 value ([2]; 24 h): 670 µg/mL; cytotoxicity ([2]; 24 h, at concentrations 2 mg/ml): 87%-91%; IC50 value ([2]; 72 h): 420 µg/mL; cytotoxicity ([2]; 72 h, concentrations ≥0.5 mg/ml): 58%-90%; inhibition of migration of EA.hy926 cells ([3]; 10 μg/ml-1 mg/ml): 17%-54%; % Inhibition of migration with respect to respective 0 h control ([3]; 0.1 μg/ml): 0%; % Inhibition of migration with respect to respective 0 h control ([3]; 1 μg/ml): 0%; % Inhibition of migration with respect to respective 0 h control ([3]; 10 μg/ml): 17%; % Inhibition of migration with respect to respective 0 h control ([3]; 50 μg/ml): 34%; % Inhibition of migration with respect to respective 0 h control ([3]; 100 μg/ml): 41%; % Inhibition of migration with respect to respective 0 h control ([3]; 1 mg/ml): 54%; inhibition of VEGF secretion as compared to untreated (basal) levels (VEGF): 11.1%-17%; % Inhibition of VEGF wrt untreated (basal) levels (VEGF; 0.1 μg/ml): 17.0%; Conc. of VEGF (VEGF; 0.1 μg/ml): 2982.4 pg/mL; % Inhibition of VEGF wrt untreated (basal) levels (VEGF; 1 μg/ml): 12.6%; Conc. of VEGF (VEGF; 1 μg/ml): 3139.7 pg/mL; % Inhibition of VEGF wrt untreated (basal) levels (VEGF; 5 μg/ml): 11.1%; Conc. of VEGF (VEGF; 5 μg/ml): 3193.5 pg/mL; % Inhibition of VEGF wrt untreated (basal) levels (VEGF; 10 μg/ml): 12.9%; Conc. of VEGF (VEGF; 10 μg/ml): 3128.2 pg/mL; % Inhibition of VEGF wrt untreated (basal) levels (VEGF; 100 μg/ml): 0.7%; Conc. of VEGF (VEGF; 100 μg/ml): 3565.8 pg/mL; inhibition at 50 µg/mL (PDGFRA (PDGFR alpha); 50 μg/ml): 8%; inhibition at 100 µg/mL (PDGFRA (PDGFR alpha); 100 μg/ml): -10%; inhibition at 250 µg/mL (PDGFRA (PDGFR alpha); 250 μg/ml): -26%; inhibition at 500 µg/mL (PDGFRA (PDGFR alpha); 500 μg/ml): -49%; inhibition at 1000 µg/mL (PDGFRA (PDGFR alpha); 1000 μg/ml): -81%; inhibition at 2000 µg/mL (PDGFRA (PDGFR alpha); 2000 μg/ml): -147%; histopathology ear thickness ([4]; 0.3 mg/kg, s.c.): maximum reduction in ear thickness; hyperkeratosis ([4]; 1.2 mg/kg i.m. and i.v.): reduction in hyperkeratosis; reduction in IL-23 (ear homogenate) compared to disease control ([4]; BALB/C mice, 0.3 mg/kg): 62.35%; reduction in TNFα (ear homogenate) compared to disease control ([4]; BALB/C mice, 0.3 mg/kg s.c.): 24.98%; reduction in TNFα (ear homogenate) compared to disease control ([4]; BALB/C mice, 1.2 mg/kg i.m.): 21.28%; dorsal skin thickness ([4]; across the groups except 0.6 mg/kg s.c. and 1.2 mg/kg i.m.): mild reduction in dorsal skin thickness, however which was not significant; punch biopsy weight ([4]; across the groups except 1.2 mg/kg, i.m.): mild reduction in punch biopsy weight, however which was not significant; IL-17A (ear homogenate) ([4]; across the treated groups): No changes in IL-17A; clinical score ([4]; across the treated groups): No substantial changes in clinical score; erythema index ([4]; across the treated groups): No changes in erythema index; ear thickness (life phase) compared to disease control ([4]; s.c.): mild reduction in ear thickness; edema compared to disease control ([4]; s.c. (1.2, 0.6 and 0.3 mg/kg)): reduction in edema; inflammatory cells infiltration compared to disease control ([4]; s.c. (1.2, 0.6 and 0.3 mg/kg) and 1.2 mg/kg i.v.): reduction in inflammatory cells infiltration; Rete peg proliferation ([4]; s.c. (at 1.2, 0.6 and 0.3, mg/kg)): reduction in Rete peg proliferation; spleen weight ([4]; s.c. route, 1.2 mg/kg): maximum reduction in spleen weight, however which was not significant; hyperkeratosis ([4]; s.c., 0.3 mg/kg): maximum effect; ear thickness (life phase) ([5]; 1.2 mg/kg i.m. and i.p): mild reduction in ear thickness; spleen weight ([5]; i.p): mild reduction in spleen weight
